From a melting point compilation (Tetko et al.; mined from patent text by program, amines drawn as free bases though some values may be those of a salt) come the findings set out here.

SMILES strings stand for the structures. Where only a bound is given, the exact number is not on record here.

By melting point is commonly meant the temperature of the solid-liquid transition. With `COC(=O)c1ccc(OCCNC(=O)C2Cc3ccccc3N2S(=O)(=O)c2ccc(-c3ccc(F)cc3)cc2)cc1Cl` (stereo unspecified), the melting point is 70 to 79 °C. Compound `CCOC(=O)c1c(N2CCN(C(=O)c3cccs3)CC2)c2cnccc2[nH]c1=O` showed a melting point of 231 °C. In the case of `COc1cc(C(=O)O)ccc1CN1CCOc2ccc(NC(=O)CC3CCCC3)cc21` it was 224 to 225 °C. In the case of `C=C(C(=O)c1ccc(OC)c(OC)c1)c1ccc(F)cc1` it was 77 to 78 °C; in that of `CNC(=O)n1sc(SCc2ccc(Cl)cc2)nc1=O`, 140 °C; in that of `CN(C=O)CCC12CCCn3c1c(c1ccccc13)CCO2` (stereo unspecified), 111 to 113 °C. The figure for `O=[N+]([O-])c1ccc2c(c1)Sc1cc(I)ccc1N2` is greater than 250 °C.

`COC(=O)Cn1ccnc1Cc1ccccc1` gave a melting point of 70.8 °C. The figure for `COCC(=O)Nc1nc2ccccc2s1` is 99 to 100 °C. `O=C(O)c1ccc2c(c1)C(=O)c1cccc(C(=O)O)c1S2(=O)=O` returned a melting point of 350 to 351 °C.

`O=C(O)C1=Cc2c(ccc3occ(-c4ccc(Br)cc4)c23)OC1C(F)(F)F` (stereo unspecified) returned a melting point greater than 250 °C. The figure for `COC(=O)c1nc(CN(C)C)n(-c2ccc(Cl)cc2C(=O)c2ccccc2Cl)n1` is 131 to 134 °C; for `COc1ccc(C(=O)OCCN2CCC(Nc3nc4ccccc4n3Cc3ccc(F)cc3)CC2)cc1` it is 189 °C; for `CC(C)(C)C1OC1C(O)c1ccc(C(F)(F)F)cc1` (stereo unspecified) it is 74 to 75 °C.

As to `C=CCNC(=S)NNCC1CC2c3cccc4[nH]cc(c34)CC2N(C)C1` (stereo unspecified), the melting point is 207 to 208 °C. The figure for `Cc1cnc(C)n1CC(=O)c1ccc(-c2ccc(N3C[C@H](Cn4ccnn4)OC3=O)cc2F)cn1` is 112 to 115 °C; for `COc1cc(N)c(Cl)cc1C(=O)NCC1CCN(CCCCC(=O)c2cn(C)c3ccccc23)CC1` it is 87 to 89 °C; for `O=C(O)c1cccc(-c2ccc3c(c2)C(Nc2ccc(Cl)cc2Cl)CO3)c1` (stereo unspecified) it is 164 to 165 °C. `CC12CCC(=O)C([N+](=O)[O-])=C1CCC1C2CCC2(C)C(C(O)CO)CCC12` (stereo unspecified) had a melting point of 183 to 185 °C.

With `Oc1c(CN2CCCC2)cc(Nc2ccccn2)cc1CN1CCCC1`, the melting point lay within 158 to 159 °C. In the case of `O=C(Nc1ccc(Cl)cc1)C1=C(C(=O)Nc2cc(OC3CCCC3)c(Cl)cc2F)CCCC1` it was 221 to 222 °C; in that of `COc1cc(NC(=O)OC(C)(C)C)c(N)cc1-c1cc(F)ccc1F`, 144 °C; in that of `CCCOc1nc(O)ns1`, 92 °C. In the case of `CCOC(=O)CN(C)CCCNC(=O)C=CC(=O)Nc1ccc2ncnc(Nc3cccc(Br)c3)c2c1`, the melting point was in the range of 278 to 279 °C.

The compound `O=C(O)C=Cc1cccc(Sc2c[nH]c3ccccc23)c1` gave a melting point of 165 to 167 °C.

`CC(C)(C)OC(=O)CC(=O)c1ccc(C#N)cc1` yielded a melting point of 82 to 83 °C. In the case of `O=C(NCc1ccc(Cl)cc1)c1cn(Cc2cccc(F)c2)c2sc(CN3CCOCC3)cc2c1=O` it was 214 to 215 °C; in that of `CCOCc1nc2c(N)nc3c(c2n1CCCCCS(N)(=O)=O)CCCC3`, 203 to 205 °C.

`CN1CCCN(Cc2nc3ccccc3[nH]2)CC1` came in with a melting point of 152 to 155 °C. In the case of `CCn1c2ccccc2c2cc(/C=C/C(=O)CC(=O)/C=C/c3ccc4c(c3)c3ccccc3n4CC)ccc21` it was 264 to 267 °C; in that of `Cc1nn(-c2ccccn2)c2nc3ccccc3c(OCC(C)C)c12`, 117 to 120 °C. In the case of `CCCCn1c(-c2ccc(Cl)c(S(=O)(=O)N(C)C)c2)csc1=Nc1ccccc1C` it was 104 °C. In the case of `Cc1nc(/C=C/c2cn(-c3ccccc3)nc2O)cs1` it was 211 to 212 °C; in that of `CC(Cc1ccc2c(c1)OCO2)C(=O)O` (stereo unspecified), 121 °C. With `O=[N+]([O-])c1ccc(Nc2ccc(C(F)(F)C(F)(F)C(F)(F)C(F)(F)C(F)(F)C(F)(F)F)cc2)c([N+](=O)[O-])c1`, the melting point is 145 to 146 °C. The figure for `CCc1cccc(CC(=O)O)c1OCCCc1cn(-c2ccc(Br)cn2)nc1C(C)C` is 152 °C. In the case of `NC(=O)N1C(=O)C(C(=O)c2cc(Cl)cs2)c2nc(Cl)ccc21` (stereo unspecified) it was greater than 250 °C. The figure for `CCCCCCn1c(C)cc(C)c(C#N)c1=O` is 63 to 69 °C.

Turning to `CC(=O)c1cc(N(C)C)ccc1NC(=O)c1ccc(OCc2ccccc2)cc1`, the melting point was 139 to 140 °C. The figure for `CCOC(=O)Cc1cccc(Cc2nc3cc(F)cc(F)c3s2)c1` is 66 to 67 °C. In the case of `CN(N(C)S(C)(=O)=O)S(C)(=O)=O` it was 168 to 169 °C; in that of `Cc1oc(-c2ccccc2)nc1CCC(=O)O`, 124 to 125 °C; in that of `Cn1ccc2ccc(N3Cc4c(cccc4[N+](=O)[O-])C3=O)cc21`, 225 to 262 °C. In the case of `Cc1c(C)c(S(=O)(=O)C[N+](=O)[O-])c(C)c2c1OC(C)(C)CC2` it was 98 to 100 °C; in that of `CCCCCS(=O)(=O)NC(=O)OCc1ccc(OCCCC)cc1Oc1ncc(C(F)(F)F)cc1Cl`, 124 to 126 °C; in that of `Cc1noc(NS(=O)(=O)c2cc(F)ccc2F)c1Br`, 123 to 125 °C. Compound `CCOc1ccc2c(c1)C(Cl)(c1ccccc1Cl)C(=O)N2` (stereo unspecified) displayed a melting point of 128 to 132 °C. On to `COC(=O)CN(C)c1cc(-c2ccc(Cl)cc2)on1`, for which the melting point was 141 °C. The figure for `COc1ccccc1C(C)(O)c1ccccc1OC` is 122 to 123 °C. The figure for `Cc1c(S(C)(=O)=O)ccc(C(=O)C2SCCCC2=O)c1Cl` (stereo unspecified) is 142 to 144 °C. In the case of `O=C(Nc1ccccc1SCc1ncon1)OCc1ccccc1` it was 41 °C.

As for `COCCc1sc2ncnc(N)c2c1-c1ccc(NC(=O)Nc2ccc(C)cc2)cc1`, the melting point is 128 to 132 °C. In the case of `O=[N+]([O-])c1cnccc1NCc1ccccc1` it was 100 to 104 °C; in that of `COc1ccc(C(C)C)c(NC(=O)CN2CCN(CCCSc3nc4ccccc4o3)CC2)c1C(C)C`, 105 to 107 °C; in that of `CC(C)(C)OC(=O)CC[C@H](NC(=O)c1ccc(N)cc1F)C(=O)OC(C)(C)C`, 91 to 95 °C. In the case of `Cc1ccc(NC(=O)c2cccc(C(F)(F)F)c2)cc1NC(=O)N(C)c1cc(Nc2ccc(N3CCN(C)CC3)cc2)ncn1` it was 190 to 191 °C; in that of `O=C1c2ccccc2C(=O)C1c1cccc([N+](=O)[O-])c1`, 216 to 226 °C. The figure for `COc1cc(C=C(C(=O)NC2CCC(C)CC2)c2ccccc2)ccc1OC(C)=O` (stereo unspecified) is 136 to 140 °C; for `C#CC1N(C(=O)Oc2ccccc2)c2ccc(OCc3ccccc3[N+](=O)[O-])cc2C23OC12CCCC3O` (stereo unspecified) it is 207 to 209 °C. Regarding `CCOC(=O)c1cn(C[C@@H]2CN(c3ccc(N4CCC(=CC#N)CC4)c(F)c3)C(=O)O2)nn1`, the melting point was 164 to 166 °C. The figure for `O=C(CCl)NCC1(c2ccc(Cl)c(Cl)c2)CCC1` is 104 to 105 °C; for `CSc1cc(Oc2cccc(C(F)(F)F)c2)nc(C(=O)O)c1` it is 54 to 57 °C. The figure for `COc1c(NC(=O)c2ccc(C)c(-n3cc(C(=O)NCc4cccnc4)cn3)c2)cc(C(C)(C)C)cc1NS(C)(=O)=O` is 127 to 133 °C; for `O=S(=O)(N[C@H]1CC[C@H](CCN2CCN(c3nccc4c3CCO4)CC2)CC1)c1ccccc1` it is 168 °C; for `CC(C)n1cc(C#N)c(-c2ccc([N+](=O)[O-])o2)n1` it is 181 to 182 °C. As for `CCOC(=O)c1c(C)[nH]c(CC)c1C`, the melting point lay within 108 to 109 °C. In the case of `COc1ccc(/C(=C/C(=O)O)c2cc(F)cc(F)c2)cc1` it was 170 to 172 °C.

`O=[N+]([O-])c1ccc(F)c2ccccc12`: the melting point was 75 to 76 °C.

Turning to `COc1ccccc1C1(O)CCN(C2CCN(C(=O)c3cc(C)cc(C)c3)C(Cc3ccccc3)C2)CC1` (stereo unspecified), the melting point is 213 °C. In the case of `Cc1nc(C(N)=O)c([N+](=O)[O-])n1-c1ccc(Cl)c(Cl)c1` it was greater than 204 °C. In the case of `CN(C)c1ccc(N=Nc2ccccc2C(=O)NCCN)cc1` it was 119 to 124 °C; in that of `CC(=O)OC1C=C(Br)C(=O)CO1` (stereo unspecified), 78 to 80 °C. As to `COC(=O)/C=C/c1ccc(CC(C)NCC(O)c2cccc(C(F)(F)F)c2)cc1` (stereo unspecified), the melting point was 80 to 83 °C. The figure for `Cc1c(Cl)cccc1S(=O)(=O)Nc1nc(CC(=O)N2CCSCC2)cs1` is 103 to 106 °C. Consider `COCC1(OP(=O)(O)O)CCN(c2c(F)cc(N3C[C@H](CNC(C)=O)OC3=O)cc2F)CC1`, for which the melting point was greater than 140 °C. The figure for `CCCOc1ccc(S(=O)(=O)N2CCN(CC)CC2)cc1-c1nc2cc3ncn(Cc4ccccc4)c3cc2c(=O)[nH]1` is 135 to 137 °C; for `O=C1NCCN1c1ccc(S(=O)(=O)Nc2cccc(Oc3ccccc3)c2)cc1` it is 208 to 211 °C; for `CCCCCCCCCCCCn1nnc(NC(=O)CS(=O)(=O)Nc2c(C(C)C)cccc2C(C)C)n1` it is 138 to 140 °C. In the case of `CCOc1cc2c(cc1OC)C(c1ccc(C(=O)N(C(C)C)C(C)C)cc1)=N[C@@H]1CCSC[C@H]21` it was 84 to 89 °C; in that of `CSC(Nc1ccc2c(c1)OCO2)=C(C#N)S(C)(=O)=O`, 168 to 170 °C; in that of `COc1cc2c(cc1OC)CCCC(C(=O)O)=C2`, 158 to 159 °C.

For `O=C(O)[C@H](Cc1ccc(F)cc1)[C@@H](O)c1ccc(C(F)(F)F)cc1` (racemic), the melting point lay within 120 to 121 °C.

`COc1ccc2c(c1)N(CCCN1CCC(CCO)CC1)c1cccc(SC)c1S2` gave a melting point of 101 to 103 °C. The figure for `C[Si](C)(C)C#Cc1ccc2c(c1)C(=O)N(c1ccc3c(c1)C=C3)C2=O` is 192 to 193 °C.

The compound `O=[N+]([O-])c1cn2c(n1)OC(COc1ccc(-c3csc(Cc4ccc(OC(F)(F)F)cc4)n3)cc1)CC2` (stereo unspecified) returned a melting point of 222 to 224 °C.

`O=C(NCCNCC1COc2ccccc2O1)C12CC3CC(CC(C3)C1)C2` (stereo unspecified) returned a melting point of 147 to 149 °C.
